In paper PMC8162404, “Proteomimetic surface fragments distinguish targets by function” (Chemical Science, 2020):

Assays:
[1] = target: T1, RecQ-WH (Escherichia coli, UniProt P15043); assay: Competition pull-down with native ligand SSB-Ct8; type: binding, E. coli; conditions: H14 library; competitor peptide 200 µM; read-out: Surface mapping KD (apparent), competition
T1 construct: coding for residues 408– 523 of E. coli RecQ; made in house; host or cells: E. coli BL21(DE3)

[2] = target: T1, RecQ-WH; assay: Pull-down assay with immobilized protein and LSM libraries; design: species or system E. coli; conditions: H14 library; 1:1 binding assumed; read-out: Surface mapping KD (apparent)
Outline: (§1)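 His-tagged protein immobilized on Co-NTA resin (64 µM) in 20 mM HEPES pH 7.4, 150 mM NaCl, equilibrated 30 min at room temperature with foldamer LSM sublibraries at equimolar total concentration. Unbound fractions quantified by HPLC-MS versus protein-free resin control; apparent KD assumes 1:1 binding.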

[3] = target: T2, S100B (Homo sapiens, UniProt P04271); assay: Competition pull-down with native ligand RSK1 (689–735); type: binding; conditions: H14 library; competitor peptide 200 µM; read-out: Surface mapping KD (apparent), competition
T2 construct: made in house; host or cells: Escherichia coli BL21(DE3)
T2 sequence (P04271 1-92): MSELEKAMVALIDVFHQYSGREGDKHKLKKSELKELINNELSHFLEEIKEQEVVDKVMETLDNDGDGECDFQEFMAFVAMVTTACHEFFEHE

[4] = target: T3, CaM (Bos taurus, UniProt P62157); assay: Pull-down assay with immobilized protein and LSM libraries; type: binding, bovine; conditions: H14 library; 1:2 stoichiometry assumed; read-out: Surface mapping KD (apparent)
T3 construct: made in house; host or cells: E. coli BL21 (DE3)
Outline: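 His-tagged protein immobilized on Co-NTA resin, equilibrated 30 min at room temperature with LSM sublibraries (64 members, […]), equimolar protein to total probe. CaM buffer: 20 mM HEPES pH 7.4, 150 mM NaCl, 5 mM CaCl2. Bound fractions from HPLC-MS loss of unbound probe versus protein-free resin control; Kd derived.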

[5] = target: T4, Gal-1 (Homo sapiens, UniProt P09382); assay: Competition pull-down with lactose; type: binding; conditions: H14 library; lactose 10 mM; read-out: Surface mapping KD (apparent), competition
T4 construct: made in house; host or cells: E. coli BL21(DE3)
Outline: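 His6-tagged proteins immobilized on Co-NTA resin at 64 µM final with 64-member LSM foldamer sublibraries (1 M each, as printed) in pH 7.4 HEPES/NaCl buffers (Ca2+/TCEP per target), 30 min RT; competitor peptides 200 µM final, lactose 10 mM for Gal-1. Bound fractions from LC-MS loss vs protein-free resin; KD assuming 1:1 binding.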

[6] = target: T4, Gal-1; assay: Pull-down assay with immobilized protein and LSM libraries; type: binding; conditions: H14 library; 1:1 binding assumed; read-out: Surface mapping KD (apparent)
Outline: as §1

[7] = target: T5, S100A4 (Homo sapiens, UniProt P26447); assay: as above; type: binding; conditions: H14 library; 1:1 binding assumed; read-out: Surface mapping KD (apparent)
T5 construct: made in house; host or cells: Escherichia coli BL21(DE3)
Outline: (§2)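 Buffers were HEPES pH 7.4 with 150 mM NaCl, plus 1 mM TCEP and 1 mM CaCl2 (50 mM HEPES) for S100A4 and S100B, 1 mM TCEP for Gal-1, and no additive for RecQ-WH. Immobilized protein at 64 µM was equilibrated 30 min with the LSM sublibrary, and unbound probes were measured by LC-MS.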

[8] = target: T2, S100B; assay: as above; type: binding; conditions: H14 library; 1:1 binding assumed; read-out: Surface mapping KD (apparent)
Outline: as §2

[9] = target: T3, CaM; assay: Competition pull-down with native ligand TRPV1-Ct15; type: binding, bovine; conditions: H14 library; competitor peptide 200 µM; read-out: Surface mapping KD (apparent), competition

T1 sequence (P15043 408-523): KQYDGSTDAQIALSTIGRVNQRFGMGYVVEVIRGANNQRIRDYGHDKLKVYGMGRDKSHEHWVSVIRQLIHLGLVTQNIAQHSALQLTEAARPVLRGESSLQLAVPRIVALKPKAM
T4 sequence (P09382 whole entry): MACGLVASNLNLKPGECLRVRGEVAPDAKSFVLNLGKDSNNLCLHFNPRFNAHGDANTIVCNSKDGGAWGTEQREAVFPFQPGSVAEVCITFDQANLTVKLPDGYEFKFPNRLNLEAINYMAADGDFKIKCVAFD
T5 sequence (P26447 whole entry): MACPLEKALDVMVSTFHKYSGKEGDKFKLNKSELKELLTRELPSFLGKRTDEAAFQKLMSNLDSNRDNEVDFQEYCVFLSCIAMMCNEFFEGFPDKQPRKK

C[C@@H](CC(=O)N[C@H]1CCCC[C@@H]1C(=O)N[C@H]1CCCC[C@@H]1C(=O)N[C@H](CC(=O)N[C@H]1CCCC[C@@H]1C(N)=O)Cc1ccccc1)NC(=O)[C@H]1CCCC[C@@H]1N [H14 AF]
Kd [1]: 454 µM
Kd [2]: 483 µM
Kd [3]: 354 µM
Kd [4]: 5 µM
Kd [5]: 333 µM
Kd [6]: 121 µM
Kd [7]: 13 µM
Kd [8]: 45 µM

NC(=O)[C@H]1CCCC[C@@H]1NC(=O)C[C@H](Cc1ccccc1)NC(=O)[C@H]1CCCC[C@@H]1NC(=O)[C@H]1CCCC[C@@H]1NC(=O)C[C@H](CC(=O)O)NC(=O)[C@H]1CCCC[C@@H]1N [H14 DF]
Kd [2]: 288 µM
Kd [3]: 130 µM
Kd [9]: 220 µM
Kd [5]: 388 µM
Kd [8]: 339 µM

C[C@@H](CC(=O)N[C@H]1CCCC[C@@H]1C(N)=O)NC(=O)[C@H]1CCCC[C@@H]1NC(=O)[C@H]1CCCC[C@@H]1NC(=O)C[C@H](Cc1ccccc1)NC(=O)[C@H]1CCCC[C@@H]1N [H14 FA]
Kd [2]: 282 µM
Kd [3]: 330 µM
Kd [4]: 3 µM
Kd [9]: 309 µM
Kd [5]: 151 µM
Kd [6]: 130 µM
Kd [7]: 58 µM
Kd [8]: 253 µM

N=C(N)NCCC[C@@H](CC(=O)N[C@H]1CCCC[C@@H]1C(N)=O)NC(=O)[C@H]1CCCC[C@@H]1NC(=O)[C@H]1CCCC[C@@H]1NC(=O)C[C@H](Cc1ccccc1)NC(=O)[C@H]1CCCC[C@@H]1N [H14 FR]
Kd [2]: 447 µM
Kd [3]: 406 µM
Kd [4]: 3 µM
Kd [9]: 290 µM
Kd [5]: 208 µM
Kd [6]: 222 µM
Kd [7]: 124 µM
Kd [8]: 56 µM

NC(=O)[C@H]1CCCC[C@@H]1NC(=O)C[C@H](Cc1ccc(O)cc1)NC(=O)[C@H]1CCCC[C@@H]1NC(=O)[C@H]1CCCC[C@@H]1NC(=O)C[C@H](Cc1ccccc1)NC(=O)[C@H]1CCCC[C@@H]1N [H14 FY]
Kd [1]: 231 µM
Kd [2]: 92 µM
Kd [3]: 146 µM
Kd [4]: 3 µM
Kd [5]: 395 µM
Kd [6]: 214 µM
Kd [7]: 57 µM
Kd [8]: 96 µM

CC(C)C[C@@H](CC(=O)N[C@H]1CCCC[C@@H]1C(=O)N[C@H]1CCCC[C@@H]1C(=O)N[C@H](CC(=O)N[C@H]1CCCC[C@@H]1C(N)=O)Cc1ccc(O)cc1)NC(=O)[C@H]1CCCC[C@@H]1N [H14 LY]
Kd [2]: 239 µM
Kd [3]: 154 µM
Kd [4]: 10 µM
Kd [9]: 455 µM
Kd [6]: 231 µM
Kd [7]: 26 µM
Kd [8]: 85 µM

CSCC[C@@H](CC(=O)N[C@H]1CCCC[C@@H]1C(=O)N[C@H]1CCCC[C@@H]1C(=O)N[C@H](CC(=O)N[C@H]1CCCC[C@@H]1C(N)=O)Cc1ccccc1)NC(=O)[C@H]1CCCC[C@@H]1N [H14 MF]
Kd [2]: 304 µM
Kd [3]: 316 µM
Kd [4]: 2 µM
Kd [9]: 133 µM
Kd [5]: 181 µM
Kd [6]: 223 µM
Kd [7]: 23 µM
Kd [8]: 85 µM

CSCC[C@@H](CC(=O)N[C@H]1CCCC[C@@H]1C(N)=O)NC(=O)[C@H]1CCCC[C@@H]1NC(=O)[C@H]1CCCC[C@@H]1NC(=O)C[C@H](CCSC)NC(=O)[C@H]1CCCC[C@@H]1N [H14 MM]
Kd [2]: 455 µM
Kd [3]: 276 µM
Kd [4]: 16 µM
Kd [9]: 448 µM
Kd [6]: 183 µM
Kd [7]: 14 µM
Kd [8]: 174 µM

CSCC[C@@H](CC(=O)N[C@H]1CCCC[C@@H]1C(=O)N[C@H]1CCCC[C@@H]1C(=O)N[C@H](CC(=O)N[C@H]1CCCC[C@@H]1C(N)=O)Cc1c[nH]c2ccccc12)NC(=O)[C@H]1CCCC[C@@H]1N [H14 MW]
Kd [2]: 197 µM
Kd [3]: 131 µM
Kd [4]: 2 µM
Kd [9]: 208 µM
Kd [5]: 172 µM
Kd [6]: 141 µM
Kd [7]: 41 µM
Kd [8]: 44 µM

CSCC[C@@H](CC(=O)N[C@H]1CCCC[C@@H]1C(=O)N[C@H]1CCCC[C@@H]1C(=O)N[C@H](CC(=O)N[C@H]1CCCC[C@@H]1C(N)=O)Cc1ccc(O)cc1)NC(=O)[C@H]1CCCC[C@@H]1N [H14 MY]
Kd [2]: 263 µM
Kd [3]: 330 µM
Kd [4]: 15 µM
Kd [9]: 402 µM
Kd [5]: 133 µM
Kd [6]: 98 µM
Kd [7]: 90 µM
Kd [8]: 176 µM

NC(=O)[C@H]1CCCC[C@@H]1NC(=O)C[C@H](Cc1c[nH]c2ccccc12)NC(=O)[C@H]1CCCC[C@@H]1NC(=O)[C@H]1CCCC[C@@H]1NC(=O)C[C@H](CO)NC(=O)[C@H]1CCCC[C@@H]1N [H14 SW]
Kd [1]: 265 µM
Kd [2]: 73 µM
Kd [3]: 458 µM
Kd [4]: 23 µM
Kd [5]: 177 µM
Kd [6]: 151 µM
Kd [7]: 179 µM
Kd [8]: 79 µM

C[C@@H](O)[C@@H](CC(=O)N[C@H]1CCCC[C@@H]1C(=O)N[C@H]1CCCC[C@@H]1C(=O)N[C@H](CC(=O)N[C@H]1CCCC[C@@H]1C(N)=O)Cc1ccccc1)NC(=O)[C@H]1CCCC[C@@H]1N [H14 TF]
Kd [2]: 407 µM
Kd [3]: 294 µM
Kd [4]: 163 µM
Kd [9]: 94 µM
Kd [5]: 220 µM
Kd [6]: 140 µM
Kd [7]: 43 µM
Kd [8]: 44 µM

NC(=O)[C@H]1CCCC[C@@H]1NC(=O)C[C@H](CC(=O)O)NC(=O)[C@H]1CCCC[C@@H]1NC(=O)[C@H]1CCCC[C@@H]1NC(=O)C[C@H](Cc1c[nH]c2ccccc12)NC(=O)[C@H]1CCCC[C@@H]1N [H14 WD]
Kd [1]: 479 µM
Kd [2]: 145 µM
Kd [4]: 308 µM

NCCCC[C@@H](CC(=O)N[C@H]1CCCC[C@@H]1C(N)=O)NC(=O)[C@H]1CCCC[C@@H]1NC(=O)[C@H]1CCCC[C@@H]1NC(=O)C[C@H](Cc1c[nH]c2ccccc12)NC(=O)[C@H]1CCCC[C@@H]1N [H14 WK]
Kd [2]: 287 µM
Kd [3]: 412 µM
Kd [4]: 1.1 µM
Kd [9]: 201 µM
Kd [5]: 252 µM
Kd [6]: 262 µM
Kd [7]: 136 µM
Kd [8]: 40 µM

N=C(N)NCCC[C@@H](CC(=O)N[C@H]1CCCC[C@@H]1C(N)=O)NC(=O)[C@H]1CCCC[C@@H]1NC(=O)[C@H]1CCCC[C@@H]1NC(=O)C[C@H](Cc1c[nH]c2ccccc12)NC(=O)[C@H]1CCCC[C@@H]1N [H14 WR]
Kd [2]: 272 µM
Kd [3]: 166 µM
Kd [4]: 0.5 µM
Kd [9]: 167 µM
Kd [5]: 280 µM
Kd [6]: 278 µM
Kd [7]: 81 µM
Kd [8]: 32 µM

C[C@@H](O)[C@@H](CC(=O)N[C@H]1CCCC[C@@H]1C(N)=O)NC(=O)[C@H]1CCCC[C@@H]1NC(=O)[C@H]1CCCC[C@@H]1NC(=O)C[C@H](Cc1c[nH]c2ccccc12)NC(=O)[C@H]1CCCC[C@@H]1N [H14 WT]
Kd [2]: 165 µM
Kd [3]: 242 µM
Kd [4]: 6 µM
Kd [9]: 135 µM
Kd [7]: 157 µM
Kd [8]: 107 µM

CC[C@H](C)[C@@H](CC(=O)N[C@H]1CCCC[C@@H]1C(N)=O)NC(=O)[C@H]1CCCC[C@@H]1NC(=O)[C@H]1CCCC[C@@H]1NC(=O)C[C@H](Cc1ccc(O)cc1)NC(=O)[C@H]1CCCC[C@@H]1N [H14 YI]
Kd [2]: 150 µM
Kd [3]: 201 µM
Kd [4]: 2 µM
Kd [9]: 428 µM
Kd [5]: 256 µM
Kd [6]: 148 µM
Kd [7]: 19 µM
Kd [8]: 62 µM

CC(C)C[C@@H](CC(=O)N[C@H]1CCCC[C@@H]1C(N)=O)NC(=O)[C@H]1CCCC[C@@H]1NC(=O)[C@H]1CCCC[C@@H]1NC(=O)C[C@H](Cc1ccc(O)cc1)NC(=O)[C@H]1CCCC[C@@H]1N [H14 YL]
Kd [2]: 150 µM
Kd [3]: 201 µM
Kd [4]: 2 µM
Kd [9]: 428 µM
Kd [5]: 256 µM
Kd [6]: 148 µM
Kd [7]: 19 µM
Kd [8]: 62 µM

CSCC[C@@H](CC(=O)N[C@H]1CCCC[C@@H]1C(N)=O)NC(=O)[C@H]1CCCC[C@@H]1NC(=O)[C@H]1CCCC[C@@H]1NC(=O)C[C@H](Cc1ccc(O)cc1)NC(=O)[C@H]1CCCC[C@@H]1N [H14 YM]
Kd [2]: 263 µM
Kd [3]: 344 µM
Kd [4]: 7 µM
Kd [9]: 402 µM
Kd [5]: 133 µM
Kd [6]: 98 µM
Kd [7]: 90 µM
Kd [8]: 176 µM

NC(=O)[C@H]1CCCC[C@@H]1NC(=O)C[C@H](Cc1ccc(O)cc1)NC(=O)[C@H]1CCCC[C@@H]1NC(=O)[C@H]1CCCC[C@@H]1NC(=O)C[C@H](Cc1ccc(O)cc1)NC(=O)[C@H]1CCCC[C@@H]1N [H14 YY]
Kd [1]: 298 µM
Kd [2]: 114 µM
Kd [3]: 393 µM
Kd [4]: 7 µM
Kd [6]: 375 µM
Kd [7]: 70 µM
Kd [8]: 121 µM
